The source of these data is patent US11952586B2, “B-cell cultivation method” (Hoffmann-La Roche Inc., priority 2017, dated 2024).

Assay [1] relates to single deposited B-cells. The assay is described as follows: co-cultivation of single deposited B-cells with EL-4 B5 feeder cells; IgG in supernatant by ELISA. To be noted: addition of PAP-1 to the co-cultivation. Type of assay: cell-based, rabbit. The method, then:
Single cell sorted B-cells were cultured in 96-well plates with 200 μl/well EL-4 B5 medium with Pansorbin Cells (SAC) (Calbiochem (Merck), Darmstadt, Deutschland), EL-4 B5 cells (0-5×10^4/well) and rabbit thymocyte supernatant or cytokine mix, respectively, for 7 days at 37° C. in an atmosphere of 5% CO2 in the incubator. B-cell culture supernatants were removed for screening and the cells harvested immediately for variable region gene cloning or frozen at −80° C. in 100 μl RLT buffer (Qiagen, Hilden, Germany).
A mixture of 0.5 μg/ml of biotinylated mouse anti-rabbit IgG antibody (Sigma-Aldrich) and 0.35 μg/ml anti-rabbit IgG HRP conjugate (Sigma-Aldrich) was transferred to 384 well streptavidin coated microtiter plates (MicroCoat Biotechnologie GmbH). Dilutions of B-cell supernatants in PBS supplemented with 0.5% BSA and 0.05% Tween®-20 were added and incubated for 90 min at RT. After repeated washing (6×) with PBST (phosphate buffered saline with 0.2% Tween buffer the plates were developed with BM Blue® HRP substrate solution and color formation was measured by absorbance at 370 nm. A commercial rabbit IgG (Sigma-Aldrich) was used as a calibration standard.

In assay [2] the test system is murine B-cells. The assay is described as follows: co-cultivation of murine B-cells with feeder mix additives. Type of assay: cell-based. The method, then: (§1) Thus, in one embodiment of all methods as reported herein the feeder mix for the co-cultivation of murine- or hamster-B-cells comprises IL-4.
(§2) Thus, in one embodiment of all methods as reported herein the feeder mix for the co-cultivation of murine-B-cells or hamster-B-cells comprises IL-6. In one embodiment the IL-6 is added at a concentration of 50 ng/ml. In one embodiment IL-6 is added at a concentration of 10 ng/ml, if high IgG-concentration is required. In one embodiment the addition of IL-6 is after three days of co-cultivation of the selected B-cells and EL-4 B5 cells.

The subject of assay [3] is hamster B-cells. Briefly: co-cultivation of hamster B-cells with feeder mix additives. Type of assay: cell-based. The method, then:
as §1, §2

Take `O=c1ccc2c(OCCCCOc3ccccc3)c3ccoc3cc2o1` [PAP-1, 5-(4-phenoxybutoxy) psoralene]: in assay [1], the “number of B-cell clones” value is on record as “without decreasing the number of B-cell clones” and the “rbIgG secretion of B-cells” value is listed as “increases the rbIgG secretion of B-cells in a concentration dependent manner”.
Turning to “IL-6: interleukin-6, cytokine added to the feeder mix”, the “number of IgG+-wells/cell clones” value in assay [2] (addition of IL-6 to the feeder mix, murine-B-cells) is “increased number of IgG^+-wells/cell clones”. Also, the IgG-concentration result in assay [3] (addition of IL-6 to the feeder mix, hamster-B-cells) was “increased IgG-concentration”.

B1: IL-4: interleukin-4, cytokine added to the feeder mix (protein, UniProt P05112 25-153, looked up)
Interleukin-4: HKCDITLQEIIKTLNSLTEQKTLCTELTVTDIFAASKNTTEKETFCRAATVLRQFYSHHEKDTRCLGATAQQFHRHKQLIRFLKRLDRNLWGLAGLNSCPVKEANQSTLENFLERLKTIMREKYSKCSS
As to B1, the “number of IgG+-wells/cell clones and IgG-concentration in the supernatant” value in assay [2] (addition of IL-4 to the feeder mix, murine B-cells) was “increases the number of IgG^+-wells/cell clones as well as the IgG-concentration in the supernatant”; in assay [3] (addition of IL-4 to the feeder mix, hamster B-cells), “increases the number of IgG^+-wells/cell clones as well as the IgG-concentration in the supernatant”.
